# Measured values as given in article PMC10504751, “Chalcone/1,3,4-Oxadiazole/Benzimidazole hybrids as novel anti-proliferative agents inducing apoptosis and inhibiting EGFR & BRAFV^600E” (BMC Chemistry, 2023).
# Like-named read-outs stand apart in the source and are kept apart here.
# Tests used:
# [1] = test system: UO-31; assay: NCI one-dose SRB anti-proliferative screen; format: cell-based; conditions: Homo sapiens, read-out: Cell growth inhibition %
# How it was run: (§1)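 Using a fixed 10 µM dose, anti-proliferative activity is measured through sulforhodamine B binding, read colorimetrically, in one of sixty human tumour lines.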
# [2] = test system: CAKI-1; assay: NCI one-dose SRB anti-proliferative screen; format: cell-based; conditions: Homo sapiens, read-out: Cell growth inhibition %
# How it was run: as §1
# [3] = test system: RPMI-8226; assay: NCI one-dose SRB anti-proliferative screen; format: cell-based; conditions: Homo sapiens, read-out: Cell growth inhibition %
# How it was run: as §1
# [4] = test system: NCI-H460; assay: NCI one-dose SRB anti-proliferative screen; format: cell-based; conditions: Homo sapiens, read-out: Cell growth inhibition %
# How it was run: as §1
# [5] = test system: BT-549; assay: NCI one-dose SRB anti-proliferative screen; format: cell-based; conditions: Homo sapiens, read-out: Cell growth inhibition %
# How it was run: as §1
# [6] = test system: SNB-19; assay: NCI one-dose SRB anti-proliferative screen; format: cell-based; conditions: Homo sapiens, read-out: Cell growth inhibition %
# How it was run: as §1
# [7] = test system: HOP-92; assay: NCI one-dose SRB anti-proliferative screen; format: cell-based; conditions: Homo sapiens, read-out: Cell growth inhibition %
# How it was run: as §1
# [8] = test system: SK-MEL-28; assay: NCI one-dose SRB anti-proliferative screen; format: cell-based; conditions: Homo sapiens, read-out: Cell growth inhibition %
# How it was run: as §1
# [9] = test system: COLO 205; assay: NCI one-dose SRB anti-proliferative screen; format: cell-based; conditions: Homo sapiens, read-out: Cell growth inhibition %
# How it was run: as §1
# [10] = test system: MALME-3M; assay: NCI one-dose SRB anti-proliferative screen; format: cell-based; conditions: Homo sapiens, read-out: Cell growth inhibition %
# How it was run: as §1
# [11] = test system: SK-MEL-2; assay: NCI one-dose SRB anti-proliferative screen; format: cell-based; conditions: Homo sapiens, read-out: Cell growth inhibition %
# How it was run: as §1
# [12] = test system: M14; assay: NCI one-dose SRB anti-proliferative screen; format: cell-based; conditions: Homo sapiens, read-out: Cell growth inhibition %
# How it was run: as §1
# [13] = test system: SF-295; assay: NCI one-dose SRB anti-proliferative screen; format: cell-based; conditions: Homo sapiens, read-out: Cell growth inhibition %
# How it was run: as §1
# [14] = test system: SNB-75; assay: NCI one-dose SRB anti-proliferative screen; format: cell-based; conditions: Homo sapiens, read-out: Cell growth inhibition %
# How it was run: as §1
# [15] = test system: MDA-MB-435; assay: NCI one-dose SRB anti-proliferative screen; format: cell-based; conditions: Homo sapiens, read-out: Cell growth inhibition %
# How it was run: as §1
# [16] = test system: SK-MEL-5; assay: NCI one-dose SRB anti-proliferative screen; format: cell-based; conditions: Homo sapiens, read-out: Cell growth inhibition %
# How it was run: as §1
# [17] = test system: SR; assay: NCI one-dose SRB anti-proliferative screen; format: cell-based; conditions: Homo sapiens, read-out: Cell growth inhibition %
# How it was run: as §1
# [18] = test system: MDA-MB-231/ATCC; assay: NCI one-dose SRB anti-proliferative screen; format: cell-based; conditions: Homo sapiens, read-out: Cell growth inhibition %
# How it was run: as §1
# [19] = test system: SN12C; assay: NCI one-dose SRB anti-proliferative screen; format: cell-based; conditions: Homo sapiens, read-out: Cell growth inhibition %
# How it was run: as §1
# [20] = test system: HOP-62; assay: NCI one-dose SRB anti-proliferative screen; format: cell-based; conditions: Homo sapiens, read-out: Cell growth inhibition %
# How it was run: as §1
# [21] = test system: NCI/ADR-RES; assay: NCI one-dose SRB anti-proliferative screen; format: cell-based; conditions: Homo sapiens, read-out: Cell growth inhibition %
# How it was run: as §1
# [22] = molecular target: BRAF^V600E; assay: biochemical
# Chain of BRAF^V600E (P28028 whole entry V585E): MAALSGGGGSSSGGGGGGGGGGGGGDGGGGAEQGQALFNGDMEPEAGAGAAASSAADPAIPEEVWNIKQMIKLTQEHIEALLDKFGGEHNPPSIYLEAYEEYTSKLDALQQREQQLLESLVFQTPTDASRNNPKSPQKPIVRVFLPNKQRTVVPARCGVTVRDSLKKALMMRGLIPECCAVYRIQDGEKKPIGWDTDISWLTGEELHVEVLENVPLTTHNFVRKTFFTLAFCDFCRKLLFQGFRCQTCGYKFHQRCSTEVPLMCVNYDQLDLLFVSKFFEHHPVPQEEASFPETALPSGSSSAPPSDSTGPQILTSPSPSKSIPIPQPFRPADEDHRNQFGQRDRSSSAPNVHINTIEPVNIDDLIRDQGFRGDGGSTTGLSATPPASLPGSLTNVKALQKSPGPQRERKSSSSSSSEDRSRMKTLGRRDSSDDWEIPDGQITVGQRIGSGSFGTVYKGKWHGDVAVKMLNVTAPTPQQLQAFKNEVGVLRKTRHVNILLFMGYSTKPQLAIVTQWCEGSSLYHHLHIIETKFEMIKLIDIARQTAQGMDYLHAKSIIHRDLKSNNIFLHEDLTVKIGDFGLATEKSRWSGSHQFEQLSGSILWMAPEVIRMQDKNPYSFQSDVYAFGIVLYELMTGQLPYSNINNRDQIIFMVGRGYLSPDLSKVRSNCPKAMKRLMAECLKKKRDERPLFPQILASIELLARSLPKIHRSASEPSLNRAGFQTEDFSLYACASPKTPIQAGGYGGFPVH
# Description: To further denature the protein, heat (70° C) was applied for 5 min. […] 10 µL of each reaction was loaded into the precast plates and electrophoresis was allowed to proceed. After completion of electrophoresis, the front part of the precast gel plate (holding hot ATP) was cut and afterwards cast-off. The dried gel was developed using a phosphor screen.
# [23] = molecular target: T1, EGFR (Homo sapiens, UniProt P00533); assay: EGFR-TK inhibitory assay; format: biochemical; conditions: read-out: EGFR Inhibition IC50 ± SEM
# T1 construct: EGFR cytoplasmic domain (EGFR-CD, amino acids 645–1186); His6 (N); made in house; host or cells: Sf-9 insect cells (baculovirus; pBlueBacHis2B / pFASTBacHTc)
# T1 sequence (P00533 669-1210): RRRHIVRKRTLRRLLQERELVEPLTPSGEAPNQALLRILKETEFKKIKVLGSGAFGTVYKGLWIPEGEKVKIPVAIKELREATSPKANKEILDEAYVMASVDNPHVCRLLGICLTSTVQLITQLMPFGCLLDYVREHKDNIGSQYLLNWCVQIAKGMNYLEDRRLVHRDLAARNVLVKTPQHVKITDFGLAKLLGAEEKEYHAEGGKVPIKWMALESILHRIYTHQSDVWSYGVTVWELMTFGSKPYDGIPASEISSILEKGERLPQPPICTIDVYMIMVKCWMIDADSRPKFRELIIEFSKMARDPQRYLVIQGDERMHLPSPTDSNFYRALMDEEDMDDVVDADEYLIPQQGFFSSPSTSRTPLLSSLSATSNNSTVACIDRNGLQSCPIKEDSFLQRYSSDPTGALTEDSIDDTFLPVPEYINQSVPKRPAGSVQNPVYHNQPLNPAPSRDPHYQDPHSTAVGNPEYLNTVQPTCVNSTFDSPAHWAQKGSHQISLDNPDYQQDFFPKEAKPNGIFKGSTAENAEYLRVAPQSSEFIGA
# [24] = UO-31, Renal cancer, NCI one dose
# [25] = CAKI-1, Renal cancer, NCI one dose
# [26] = RPMI-8226, Leukemia, NCI one dose
# [27] = NCI-H460, Non-Small Cell Lung Cancer, NCI one dose
# [28] = BT-549, Breast cancer, NCI one dose
# [29] = SNB-19, CNS Cancer, NCI one dose
# [30] = HOP-92, Non-Small Cell Lung Cancer, NCI one dose
# [31] = SK-MEL-28, Melanoma, NCI one dose
# [32] = COLO 205, Colon cancer, NCI one dose
# [33] = MALME-3M, Melanoma, NCI one dose
# [34] = SK-MEL-2, Melanoma, NCI one dose
# [35] = SF-295, CNS Cancer, NCI one dose
# [36] = SNB-75, CNS Cancer, NCI one dose
# [37] = MDA-MB-435, Melanoma, NCI one dose
# [38] = SK-MEL-5, Melanoma, NCI one dose
# [39] = MDA-MB-231/ATCC, Breast cancer, NCI one dose
# [40] = SN 12C, Renal cancer, NCI one dose
# [41] = HOP-62, Non-Small Cell Lung Cancer, NCI one dose
# [42] = NCI/ADR-RES, Ovarian Cancer, NCI one dose
smiles,measurement,setting,value
"COc1ccc(/C=C/C(=O)c2ccc(NC(=O)CSc3nnc(-c4ccc5[nH]c(-c6ccc(Cl)cc6)nc5c4)o3)cc2)cc1 [Compound 7h, 2-{5-[2-(4-Chlorophenyl)-1 H-benzo[d]imidazol-5-yl]-1,3,4-oxadiazol-2-ylthio}-N-{4-[(E)-3-(4-methoxyphenyl)acryloyl]phenyl}acetamide]",inhibition at 10 µM,"[1]; UO-31 (Renal Cancer), NCI one dose 10 µM",12.5%
same,inhibition at 10 µM,"[2]; CAKI-1 (Renal Cancer), NCI one dose 10 µM",2.63%
same,inhibition at 10 µM,"[3]; RPMI-8226 (Leukemia), NCI one dose 10 µM",35.6%
same,inhibition at 10 µM,"[4]; NCI-H460 (Non-Small Cell Lung Cancer), NCI one dose 10 µM",0%
same,inhibition at 10 µM,"[5]; BT-549 (Breast Cancer), NCI one dose 10 µM",15%
same,inhibition at 10 µM,"[6]; SNB-19 (CNS Cancer), NCI one dose 10 µM",0%
same,inhibition at 10 µM,"[7]; HOP-92 (Non-Small Cell Lung Cancer), NCI one dose 10 µM",0%
same,inhibition at 10 µM,"[8]; SK-MEL-28 (Melanoma), NCI one dose 10 µM",0%
same,inhibition at 10 µM,"[9]; COLO 205 (Colon Cancer), NCI one dose 10 µM",0%
same,inhibition at 10 µM,"[10]; MALME-3M (Melanoma), NCI one dose 10 µM",6.52%
same,inhibition at 10 µM,"[11]; SK-MEL-2 (Melanoma), NCI one dose 10 µM",0%
same,inhibition at 10 µM,"[12]; M14 (Melanoma), NCI one dose 10 µM",0%
same,inhibition at 10 µM,"[13]; SF-295 (CNS Cancer), NCI one dose 10 µM",0%
same,inhibition at 10 µM,"[14]; SNB-75 (CNS Cancer), NCI one dose 10 µM",1.47%
same,inhibition at 10 µM,"[15]; MDA-MB-435 (Melanoma), NCI one dose 10 µM",1.94%
same,inhibition at 10 µM,"[16]; SK-MEL-5 (Melanoma), NCI one dose 10 µM",10.3%
same,inhibition at 10 µM,"[17]; SR (Leukemia), NCI one dose 10 µM",19.5%
same,inhibition at 10 µM,"[18]; MDA-MB-231/ATCC (Breast Cancer), NCI one dose 10 µM",1.61%
same,inhibition at 10 µM,"[19]; SN 12C (Renal Cancer), NCI one dose 10 µM",6.65%
same,inhibition at 10 µM,"[20]; HOP-62 (Non-Small Cell Lung Cancer), NCI one dose 10 µM",0%
same,inhibition at 10 µM,"[21]; NCI/ADR-RES (Ovarian Cancer), NCI one dose 10 µM",0%
same,IC50,[22],2.7 ± 0.3 µM
same,IC50,[23],2.3 ± 0.2 µM
"COc1ccc(-c2nc3cc(-c4nnc(SCC(=O)Nc5ccc(C(=O)/C=C/c6ccc(OC)c(OC)c6)cc5)o4)ccc3[nH]2)cc1 [Compound 7n, 2-{5-[2-(4-Methoxyphenyl)-1 H-benzo[d]imidazol-5-yl]-1,3,4-oxadiazol-2-ylthio}-N-{4-[(E)-3-(3,4-dimethoxyphenyl)acryloyl]phenyl}acetamide]",inhibition at 10 µM,[1]; [24],26.4%
same,inhibition at 10 µM,[2]; [25],1.11%
same,inhibition at 10 µM,[3]; [26],32.3%
same,inhibition at 10 µM,[4]; [27],8.91%
same,inhibition at 10 µM,[5]; [28],1.04%
same,inhibition at 10 µM,[6]; [29],13.2%
same,inhibition at 10 µM,[7]; [30],0%
same,inhibition at 10 µM,[8]; [31],3.97%
same,inhibition at 10 µM,[9]; [32],0%
same,inhibition at 10 µM,[10]; [33],14.6%
same,inhibition at 10 µM,[11]; [34],6.27%
same,inhibition at 10 µM,"[12]; M14, Melanoma, NCI one dose",10.6%
same,inhibition at 10 µM,[13]; [35],0%
same,inhibition at 10 µM,[14]; [36],22.1%
same,inhibition at 10 µM,[15]; [37],6.15%
same,inhibition at 10 µM,[16]; [38],16.2%
same,inhibition at 10 µM,"[17]; SR, Leukemia, NCI one dose",73.6%
same,inhibition at 10 µM,[18]; [39],0%
same,inhibition at 10 µM,[19]; [40],8.67%
same,inhibition at 10 µM,[20]; [41],5.22%
same,inhibition at 10 µM,[21]; [42],6.05%
same,IC50,[22],3.7 ± 0.2 µM
same,IC50,[23],1.4 ± 0.2 µM
"COc1cc(/C=C/C(=O)c2ccc(NC(=O)CSc3nnc(-c4ccc5[nH]c(-c6ccccc6)nc5c4)o3)cc2)cc(OC)c1OC [Compound 7e, 2-{5-[2-Phenyl-1 H-benzo[d]imidazol-5-yl]-1,3,4-oxadiazol-2-ylthio}-N-{4-[(E)-3-(3,4,5-trimethoxyphenyl)acryloyl]phenyl}acetamide]",inhibition at 10 µM,[1]; [24],10.6%
same,inhibition at 10 µM,[2]; [25],0%
same,inhibition at 10 µM,[3]; [26],69.3%
same,inhibition at 10 µM,[4]; [27],7.53%
same,inhibition at 10 µM,[5]; [28],18.4%
same,inhibition at 10 µM,[6]; [29],15.6%
same,inhibition at 10 µM,[7]; [30],0%
same,inhibition at 10 µM,[8]; [31],6.64%
same,inhibition at 10 µM,[9]; [32],0%
same,inhibition at 10 µM,[10]; [33],0%
same,inhibition at 10 µM,[11]; [34],0%
same,inhibition at 10 µM,[13]; [35],0%
same,inhibition at 10 µM,[14]; [36],18.9%
same,inhibition at 10 µM,[15]; [37],5.93%
same,inhibition at 10 µM,[16]; [38],7.81%
same,inhibition at 10 µM,"[17]; SR, Leukemia, NCI one dose",63.2%
same,inhibition at 10 µM,[18]; [39],6.4%
same,inhibition at 10 µM,[19]; [40],9.21%
same,inhibition at 10 µM,[20]; [41],0%
same,inhibition at 10 µM,[21]; [42],0%
same,IC50,[22],0.9 ± 0.1 µM
same,IC50,[23],1.15 ± 0.2 µM
